This is an account of results in patent US20080199480A1, “Methods for Identifying Risk of Type II Diabetes and Treatments Thereof” (SEQUENOM, INC., priority 2004, published 2008).

The target in one test is T1, EPHA3 (Homo sapiens, UniProt P29320).
T1 construct: human EPHA3 intracellular domain (amino acids 571-986) containing juxtamembrane, kinase and SAM regions; 6xHis; made in house; host or cells: E. coli (Rosetta DE cells)
T1 sequence (P29320 571-983 limits assumed): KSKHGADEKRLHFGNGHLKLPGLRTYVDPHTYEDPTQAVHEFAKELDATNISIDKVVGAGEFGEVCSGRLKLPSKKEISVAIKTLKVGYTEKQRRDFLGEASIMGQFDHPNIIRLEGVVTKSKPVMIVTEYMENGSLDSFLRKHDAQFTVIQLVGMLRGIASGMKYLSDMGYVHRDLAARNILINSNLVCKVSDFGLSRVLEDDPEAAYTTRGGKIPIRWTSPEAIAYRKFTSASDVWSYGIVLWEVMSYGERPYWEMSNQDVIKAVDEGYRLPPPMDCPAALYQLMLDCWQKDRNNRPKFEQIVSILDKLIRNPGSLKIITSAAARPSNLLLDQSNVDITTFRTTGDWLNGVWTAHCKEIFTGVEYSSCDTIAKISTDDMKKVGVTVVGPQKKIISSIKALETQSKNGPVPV
The experiment in a line: DELFIA EPHA3 kinase assay (phosphorylation of biotin-Src-peptide). The settings on record: EPHA3 30 nM, biotin-Src-peptide 1 μM, ATP 30 μM, 3 hr incubation at 37° C., read-out: EPHA3 Potency IC50. The format is biochemical. As to the method:
An EPHA3 enzyme construct comprised the human EPHA3 intracellular domain (amino acids 571-986) containing juxtamembrane, kinase and SAM regions. It was expressed in E. coli as a recombinant protein. 6×His and NusA expression tags were used in pET28a and pET44a vectors (Novagen), respectively. Expression was carried out in Rosetta DE cells with IPTG induction followed by recombinant protein purification on a Ni-column using imidazole elution buffer.
The ATP concentrations are selected near the Michaelis-Menten constant (KM) for each individual kinase. Dose-response experiments are performed at ten different inhibitor concentrations in a 384-well plate format. The data are fitted to a standard four-parameter equation listed below:
Y=Min+(Max−Min)/(1+XIC50)̂H
These parameters are obtained by nonlinear regression algorithm built into ActivityBase software (available from ID Business Solutions Ltd., of Guildford, Surrey, UK).
The DELFIA method is a solid-phase, non-homogeneous system that measures enzymatic activity by quantitating the phosphorylation of an immobilized substrate. The compound names are provided in the “Compositions Comprising Diabetes-Directed Molecules” section.
In this experiment, EPHA3 (30 nM) was incubated with biotinylated substrate, biotin-Src-peptide (1 μM)+ATP (30 μM) in an assay medium (10 mM HEPES pH 7.4, 2 mM MgCl2, 10 μM MnCl2, 1.0 mM DTT, 0.01% Pluronic F-127) in the presence of test compounds. After 3 hr incubation at 37° C., the reaction was stopped (5 mM EDTA) and the substrate phosphorylation was quantified in DELFIA assay using Eu-labeled anti-phosphotyrosine antibody.

The test system of test [1] is Differentiated 3T3-L1. The experiment in a line: Triacylglycerol (TG) assay. The class given is cell-based, mouse. The settings on record: 100 nM insulin, 2 hours. The source says: A direct metabolic consequence of glucose transport intracellularly is its incorporation into the fatty acid and glycerol moieties of triacylglycerol (TG). TGs are highly concentrated stores of metabolic energy, and are the major energy reservoir of cells. In mammals, the major site of accumulation of triacylglycerols is the cytoplasm of adipose cells. Adipocytes are specialized for the synthesis, and storage of TG, and for their mobilization into fuel molecules that are transported to other tissues through the bloodstream. It is likely that changes in the transport of glucose intracellularly can affect cytoplasmic stores of triacylglycerols.
Cells were plated in 6-well dishes, and grown to confluency. When cells reached confluency, cells were differentiated with DMEM plus 10% fetal calf serum (FCS), 10 ug/mL insulin, 390 ng/mL dexamethasone and 112 ug/mL isobutylmethylxanthine for 2 days. After 2 days of differentiation, media was changed to maintenance media DMEM plus 10%. FCS and […] insulin. On the day of the assay (day 9 post-differentiation), cells were washed once with PBS, and serum starved by adding 2 mL of DMEM plus 2 mg/ml BSA for 3 hours. During serum starvation, recombinant rat ephrin-A5/Fc chimeric ligand was preclustered. […] The assay was read at 500-550 nm.

Test [2] relates to Differentiated 3T3-L1. Briefly: Glucose uptake assay (insulin-mediated uptake of radioactive glucose). The format is cell-based, mouse. The conditions noted are these: 100 nM insulin for 10 minutes. The source says: One of the many responses of adipocytes and muscle cells after exposure, to insulin is the transport of glucose intracellularly. This transport is mediated by GLUT4, an insulin-regulatable glucose transporter. Insulin binding to insulin receptors on the cell surface results in autophosphorylation and activation of the intrinsic tyrosine kinase activity of the insulin receptor. Phosphorylated tyrosine residues on the insulin receptor and its endogenous targets activate several intracellular signaling pathways that eventually lead to the translocation of GLUT4 from intracellular stores to the extracellular membrane. Cells were plated in 6-well dishes, and grown to confluency. Cells were then differentiated with DMEM plus 10% fetal calf serum (FCS), 10 ug/mL insulin, 390 ng/mL dexamethasone and 112 ug/mL isobutylmethylxanthine for 2 days. After 2 days of differentiation, media was changed to maintenance media DMEM plus 10% FCS and 5 ug/mL insulin. Media was changed every 2 days thereafter. Cells were assayed for insulin-mediated glucose uptake 10 days after differentiation. On the day of the assay, cells were washed once with PBS, and serum starved by adding 2 mL of DMEM plus 2 mg/mL BSA for 3 hours. During serum starvation, recombinant rat ephrin-A5/Fc chimeric ligand was preclustered. […] Lysates were read in a Wallac 1450 Microbeta Liquid Scintillation and Luminescence Counter.

Test [3] relates to resistin mRNA in differentiated 3T3-L1 cells. Briefly: Quantitative assessment of mResistin levels (mRNA, PCR). The settings on record: 10 nM insulin for 2 hours. The class given is cell-based, mouse. As to the method: Resistin is a secreted factor specifically expressed in white adipocyte. […] Elevated levels of resistin have been measured in genetically obese, and high fat fed obese mice. It is therefore thought that resistin contributes to peripheral tissue insulin unresponsiveness, one of the pathological hallmarks of diabetes.
3T3-L1 cells were differentiated for 3 days as previously described and maintained for three days prior to splitting. At day 5 post-differentiation, differentiated cells were plated in 10 cm dish at a cell density of 3×10^6 cells. Cells were then serum starved on day 7 after initiation of differentiation. On day 8, cells were treated with pre-clustered recombinant rat ephrin-A5/Fc chimera as described above for 10 min and treated with 10 nM insulin for 2 hours. Cells were harvested, mRNA extracted using magnetic DYNAL beads and reverse transcribed to cDNA using. Superscript First-Strand Synthesis as described by the manufacturer. The following primers: forward primer; 5′ GTCGCTTCCTGATGTCGGTCA 3′, and reverse primer, 5′ GGCCAGCCTGGACTATATGAG 3′, were used in 15 uL PCR reaction using 55 deg annealing temperature and 30 cycles of amplification.

Test [4] deals with T2, EPHA3 on differentiated 3T3-L1 cells (mouse) (UniProt P29319).
T2 sequence (looked up): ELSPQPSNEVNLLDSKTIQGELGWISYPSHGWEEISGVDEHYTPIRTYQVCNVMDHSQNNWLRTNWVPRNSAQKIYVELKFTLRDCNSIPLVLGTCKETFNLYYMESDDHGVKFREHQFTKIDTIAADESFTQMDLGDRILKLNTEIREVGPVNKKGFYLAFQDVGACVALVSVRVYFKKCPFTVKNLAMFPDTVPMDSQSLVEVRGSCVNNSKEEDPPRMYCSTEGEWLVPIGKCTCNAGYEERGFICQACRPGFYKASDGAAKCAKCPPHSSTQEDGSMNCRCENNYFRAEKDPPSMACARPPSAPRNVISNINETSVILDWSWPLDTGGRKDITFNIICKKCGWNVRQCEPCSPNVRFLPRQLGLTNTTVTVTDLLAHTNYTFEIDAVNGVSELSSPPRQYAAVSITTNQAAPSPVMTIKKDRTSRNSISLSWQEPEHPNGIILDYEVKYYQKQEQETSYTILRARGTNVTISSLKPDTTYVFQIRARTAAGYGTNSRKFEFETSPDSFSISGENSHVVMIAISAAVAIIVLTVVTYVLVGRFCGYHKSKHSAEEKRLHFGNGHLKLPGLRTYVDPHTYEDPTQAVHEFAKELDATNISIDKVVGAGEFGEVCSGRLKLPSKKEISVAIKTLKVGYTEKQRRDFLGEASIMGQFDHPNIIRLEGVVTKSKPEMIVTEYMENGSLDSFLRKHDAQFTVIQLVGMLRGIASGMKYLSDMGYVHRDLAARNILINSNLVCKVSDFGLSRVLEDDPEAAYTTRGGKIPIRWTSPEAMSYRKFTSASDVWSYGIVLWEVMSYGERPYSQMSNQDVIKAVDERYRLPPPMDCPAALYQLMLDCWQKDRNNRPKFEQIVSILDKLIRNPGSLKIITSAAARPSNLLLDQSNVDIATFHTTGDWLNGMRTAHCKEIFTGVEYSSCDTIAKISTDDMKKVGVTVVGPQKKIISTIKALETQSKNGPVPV
Briefly: cell-based or functional assay.

Turning to `COc1cc2ncnc(Nc3ccc(Cl)c(Cl)c3)c2cc1OC` [sqnm-1], on EPHA3, the IC50 – broadly, the concentration at which inhibition is half-maximal – was 2000 nM.
On the same count and under the same terms, with `COc1cc2ncnc(Nc3cccc(Cl)c3)c2cc1OC` [sqnm-4] the figure was 4500 nM.
For `COc1cc2ncnc(Nc3ccc(Cl)cc3F)c2cc1OC` [sqnm-5], the IC50 on EPHA3 is 500 nM.
On the same count and under the same terms, with `COc1cc2c(Nc3ccc(Cl)cc3F)ncnc2cc1OCC1CCN(C)CC1` [sqnm-7] the figure was 900 nM; with `COc1cc2c(Nc3cc(Cl)ccc3F)ncnc2cc1OCC1CCN(C)CC1` [sqnm-8], 2000 nM; with `COc1cc2c(Nc3ccc(Cl)c(Cl)c3)ncnc2cc1OCC1CN(C2CCCC2)CCO1` (stereo not drawn) [sqnm-9], 200 nM.
Same read-out and setting: the result for `COc1cc2c(Nc3ccc(Cl)cc3F)ncnc2cc1OCC1CN(C2CCCC2)CCO1` (stereo not drawn) [sqnm-10] reads 300 nM.
`COc1cc2c(Nc3ccc(Cl)c(Cl)c3)ncnc2cc1OCC1CN(C)CCO1` (stereo not drawn) [sqnm-11]: the 50% inhibitory concentration (IC50) at EPHA3 amounted to 400 nM.
The same measure, in the same setting: with `COc1cc2c(Nc3ccc(Cl)c(Br)c3)ncnc2cc1OCC1CN(C)CCO1` (stereo not drawn) [sqnm-12] the figure was 200 nM; with `COc1cc2c(Nc3ccc(Cl)cc3F)ncnc2cc1OCC1CN(C)CCO1` (stereo not drawn) [sqnm-14], 200 nM.
For the molecule `COc1cc2c(Nc3ccc(Cl)cc3F)ncnc2cc1OCC1CN(C(C)C)CCO1` (stereo not drawn) [sqnm-15], the IC50 on EPHA3 was 800 nM.
The same measure, in the same setting: the result for `Oc1cccc(Nc2ncnc3ccccc23)c1` [sqnm-16] reads 11000 nM.
As to “insulin: porcine insulin used to stimulate differentiated 3T3-L1 cells”, the “increase in TG stores” value in the test on Differentiated 3T3-L1 [1] is on record as “about 23%”. Further, the “increase in uptake of radioactive glucose” value with Differentiated 3T3-L1 [2] was determined as 22 fold. Also, in test [3], the “resistin mRNA levels” value is given as “decrease”.

B1: recombinant rat ephrin-A5/Fc chimeric ligand, preclustered with anti-human IgG, Fc γ fragment specific antibody (Fc fusion, part only; not given: Fc part, UniProt P97605 21-203, looked up, part only)
chain, part: QDPGSKVVADRYAVYWNSSNPRFQRGDYHIDVCINDYLDVFCPHYEDSVPEDKTERYVLYMVNFDGYSACDHTSKGFKRWECNRPHSPNGPLKFSEKFQLFTPFSLGFEFRPGREYFYISSAIPDNGRRSCLKLKVFVRPTNSCMKTIGVRDRVFDVNDKVENSLEPADDTVHESAEPSRGEN
B1: in test [4], the insulin-mediated triacylglycerol (TG) stores, differentiated 3T3-L1, 10 min pretreatment with ephrin-A5 is 10 % decrease; the uptake of radioactive glucose, insulin-treated differentiated 3T3-L1, 10 min pretreatment with pre-clustered ephrin-A5 worked out at 20 % decrease; the uptake of radioactive glucose, insulin-treated differentiated 3T3-L1, 90 min preincubation with pre-clustered ephrin-A5 was 15 % decrease.
